Measurements from patent US20180110721A1, “TOPICAL COSMETIC COMPOSITIONS AGAINST FREE RADICALS” (THE BOOTS COMPANY PLC, priority 2015, published 2018).

Assay: Lipid Peroxidation (LPO) assay
Format: biochemical
Details: 2% linoleic acid + 1% trolox in methanol, solar simulator UV dose 36x10^4 J/m^2; FIG. 2 column 2, negative control
Excerpt: Lipids are present in the cell membrane bilayer. Peroxidation of lipids compromises the integrity of skin cells and […] the ageing process resulting in premature ageing. The LPO assay is designed to determine the level of LPO damage in the skin with and without external stresses such as UV exposure; and investigating whether early defence complex can protect against the UV induced LPO damage. K-assay LPO-CC004 lipid peroxidation kit (Kamiya biomedical company)˜500 assays containing— • Reagent 1 (liquid): Enzyme reagent (ascorbic oxidase, lipoprotein lipase, stabilizer, goods buffer, surfactants) • Reagent 2A: Lyophilised chromogen reagent (MCDP for 110 ml reagent 2B) • Reagent 2B: Buffer solution (liquid) (goods buffer, hemoglobin, surfactants) • Calibrator (liquid): (50 nmol/ml cumene hyderoperoxide) • D-squames (CuDerm Corp. Dalla, USA) • Linoleic acid (L.A) • Methanol (MeOH) • Deionised water (dH2O) • 96 well flat bottom clear plate • Plate reader Unless otherwise stated all the samples were prepared weight per volume in methanol. […] Absorbance was read at 675 nm. For each well, the methanol background reading was subtracted from the absorbance reading. […] As samples were run in triplicate, the mean of each sample was then calculated. […]

Compound: Cc1c(C)c2c(c(C)c1O)CCC(C)(C(=O)O)O2 (stereo not shown) [Trolox]
- oxidation (lipid peroxidation, absorbance at 675 nm): very low oxidation
